Like-named read-outs stand apart in the source and are kept apart here.
Experiments:
[1] = target: T1, dDATNET (Drosophila melanogaster, UniProt Q7K4Y6, D121G/DEL162-202/F471L/L415A/S426M/V74A); assay: biochemical; format: binding
T1 construct: GFP-8x-His (C); made in house; host or cells: HEK293S GnTI- cells, BacMam baculovirus transduction
Experimental: (§1) Binding assays were performed with 20 nM of purified dDAT protein by scintillation proximity assay. For determining nisoxetine Kd, [^3H] Nisoxetine (Perkin Elmer) (in 1:5 molar ratio) was used in the range of 0.1 nM to 500 nM with 100 µM desipramine added to the control samples. Competition assays were done with 50 nM [^3H] […] The assays were done in 1 mM DDM, 0.2 mM CHS, 20 mM Tris-Cl (pH 8), 300 mM NaCl and 5% glycerol. The background values were subtracted to plot the final curves in GraphPad prism v5.0.1 and the Kd values were calculated. The IC50 values obtained from binding competition assays were used to deduce the Ki values by Cheng–Prusoff’s equation.

[2] = target: T2, dDATfc A117S (Drosophila melanogaster, UniProt Q7K4Y6, A117S/DEL164-191/F471L/L415A/V74A); assay: cell-based
T2 construct: expressed in transfected cells; host or cells: HEK293S GnTI- cells, transient transfection with pEG-BacMam plasmid
Experimental: (§2) Earlier studies have posited that non-conserved residues in the primary binding site are responsible for selective inhibition of biogenic amine uptake[57],[58]. […] Effects of these mutations were analyzed through uptake inhibition using the three SNRIs employed in this study (Fig. 6a–c). […] Supplementary Table 2)[56],[59].
(§3) Additional mutations in the subsite B or subsite C were incorporated into this gene used for carrying out the uptake assays.
(§4) Cells were transiently transfected with pEG-BacMam plasmid harboring the dDAT cGFP gene and incubated for 35–40 hrs at 37 °C with 5% CO2 and 80% humidity. […] The transport activity was arrested with 0.5 ml of pre-chilled assay buffer containing 100 μM desipramine (Sigma Aldrich) added to each reaction. The cells were then washed twice with the same buffer before solubilizing them in 0.1 ml of 20 mM DDM for one hour at room temperature. […] Following this, 0.1 ml of the supernatant was added to 0.5 ml of scintillation fluid (Ultima Gold, Perkin Elmer) and the radioactivity was estimated on MicroBeta scintillation counter (Perkin Elmer). […] The background-subtracted, dose–response plots were analyzed using GraphPad Prism v.5.0.1 and Ki values were determined from Cheng–Prusoff’s equation using the IC50 values obtained from the experiments.

[3] = target: T3, dDATfc A428S (Drosophila melanogaster, UniProt Q7K4Y6, A428S/DEL164-191/F471L/L415A/V74A); assay: cell-based
T3 construct: expressed in transfected cells; host or cells: HEK293S GnTI- cells, transient transfection with pEG-BacMam plasmid
Experimental: as §2, §3, §4

[4] = target: hNET; conditions: read-out: Uptake Inhibition Ki, hNET; cited from earlier work
[5] = target: hDAT; design: method as in earlier work; conditions: vs. RTI-55; ref 4 (Supplementary: Vaishnavi et al., 2004); read-out: Binding Inhibition (Ki), hDAT; cited from earlier work
[6] = target: hDAT; conditions: read-out: Uptake Inhibition Ki, hDAT; ref 4 (Supplementary: Vaishnavi et al., 2004); cited from earlier work
[7] = target: T4, dDATfc (Drosophila melanogaster dopamine transporter functional construct) (Drosophila melanogaster, UniProt Q7K4Y6, DEL164-191/F471L/L415A/V74A); assay: cell-based
T4 construct: expressed in transfected cells; host or cells: HEK293S GnTI- cells, transient transfection with pEG-BacMam plasmid
Experimental: as §3, §4

[8] = target: T5, dDATmfc (Drosophila melanogaster, UniProt Q7K4Y6, DEL162-202/F471L/L415A/V74A); assay: biochemical; conditions: read-out: Percent binding
T5 construct: GFP-8x-His (C); made in house; host or cells: HEK293S GnTI- cells, BacMam baculovirus transduction
Experimental: as §1

[9] = target: hNET; conditions: read-out: Binding Inhibition (Ki), hNET; cited from earlier work
[10] = target: T6, dDATfc A117S/A428S (Drosophila melanogaster, UniProt Q7K4Y6, A117S/A428S/DEL164-191/F471L/L415A/V74A); assay: cell-based; format: cell-based
T6 construct: expressed in transfected cells; host or cells: HEK293S GnTI- cells, transient transfection with pEG-BacMam plasmid
Experimental: as §2, §3, §4

CCN(CC)C(=O)[C@]1(c2ccccc2)C[C@@H]1CN [Milnacipran, 1R-2S milnacipran]
Ki ([1]; Binding Ki with dDATNET (vs. Nisoxetine), 50 nM [3H] nisoxetine, Cheng-Prusoff): 605 ± 25.3 nM
remaining activity at 300 µM ([1]; read-out: Percent binding, DAT NET, Log Milnacipran (M) -3.52288, replicate values): 3.09%
remaining activity at 100 µM ([1]; read-out: Percent binding, DAT NET, Log Milnacipran (M) -4, replicate values): 12%
remaining activity at 30 µM ([1]; read-out: Percent binding, DAT NET, Log Milnacipran (M) -4.52288, replicate values): 31.5%
remaining activity at 10 µM ([1]; read-out: Percent binding, DAT NET, Log Milnacipran (M) -5, replicate values): 60%
remaining activity at 3 µM ([1]; read-out: Percent binding, DAT NET, Log Milnacipran (M) -5.52288, replicate values): 78.6%
IC50 [2]: 2800 ± 200 nM
inhibition at 10 µM ([2]; 0.5 h, read-out: Percent inhibition of DA uptake, A117S, Log[compound] M = -5, single replicates): 21.8%
inhibition at 2.3 µM ([2]; 0.5 h, read-out: Percent inhibition of DA uptake, A117S, Log[compound] M = -5.63827, single replicates): 62.3%
inhibition at 1 µM ([2]; 0.5 h, read-out: Percent inhibition of DA uptake, A117S, Log[compound] M = -6, single replicates): 87.2%
inhibition at 0.1 µM ([2]; 0.5 h, read-out: Percent inhibition of DA uptake, A117S, Log[compound] M = -7, single replicates): 99.6%
inhibition at 0.023 µM ([2]; 0.5 h, read-out: Percent inhibition of DA uptake, A117S, Log[compound] M = -7.63827, single replicates): 94.7%
IC50 [3]: 6600 ± 400 nM
inhibition at 100 µM ([3]; 0.5 h, read-out: Percent inhibition of DA uptake, A428S, Log[compound] M = -4, single replicates): 7.1%
inhibition at 30 µM ([3]; 0.5 h, read-out: Percent inhibition of DA uptake, A428S, Log[compound] M = -4.52288, single replicates): 15.3%
inhibition at 10 µM ([3]; 0.5 h, read-out: Percent inhibition of DA uptake, A428S, Log[compound] M = -5, single replicates): 34.4%
inhibition at 3 µM ([3]; 0.5 h, read-out: Percent inhibition of DA uptake, A428S, Log[compound] M = -5.52288, single replicates): 73.5%
inhibition at 0.1 µM ([3]; 0.5 h, read-out: Percent inhibition of DA uptake, A428S, Log[compound] M = -7, single replicates): 107%
inhibition at 0.03 µM ([3]; 0.5 h, read-out: Percent inhibition of DA uptake, A428S, Log[compound] M = -7.52288, single replicates): 100%
Ki [4]: 52 ± 9 nM
Ki [5]: > 100000 nM
Ki [6]: > 100000 nM
IC50 [7]: 2400 ± 100 nM
Ki [7]: 1500 ± 100 nM
inhibition at 100 µM ([7]; HEK293S, 0.5 h, read-out: Percent inhibition of DA uptake, dDATfc, Log[compound] M = -4, single replicates): 3.99%
inhibition at 30 µM ([7]; HEK293S, 0.5 h, read-out: Percent inhibition of DA uptake, dDATfc, Log[compound] M = -4.52288, single replicates): 6.55%
inhibition at 10 µM ([7]; HEK293S, 0.5 h, read-out: Percent inhibition of DA uptake, dDATfc, Log[compound] M = -5, single replicates): 22.7%
inhibition at 3 µM ([7]; HEK293S, 0.5 h, read-out: Percent inhibition of DA uptake, dDATfc, Log[compound] M = -5.52288, single replicates): 46.8%
inhibition at 1 µM ([7]; HEK293S, 0.5 h, read-out: Percent inhibition of DA uptake, dDATfc, Log[compound] M = -6, single replicates): 82.4%
remaining activity at 10 µM ([8]; DATmfc, Log Milnacipran (M) -5, replicate values): 21.2%
remaining activity at 0.03 µM [8]: 98.1%
remaining activity at 0.3 µM [8]: 86.3%
remaining activity at 3 µM [8]: 47.5%
Ki [9]: 22 ± 2.58 nM
IC50 [10]: 8900 ± 300 nM
inhibition at 100 µM ([10]; 0.5 h, read-out: Percent inhibition of DA uptake, A117S_A428S, Log[compound] M = -4, single replicates): 6.51%
inhibition at 30 µM ([10]; 0.5 h, read-out: Percent inhibition of DA uptake, A117S_A428S, Log[compound] M = -4.52288, single replicates): 16.4%
inhibition at 10 µM ([10]; 0.5 h, read-out: Percent inhibition of DA uptake, A117S_A428S, Log[compound] M = -5, single replicates): 35.5%
inhibition at 3 µM ([10]; 0.5 h, read-out: Percent inhibition of DA uptake, A117S_A428S, Log[compound] M = -5.52288, single replicates): 78.6%
inhibition at 0.3 µM ([10]; 0.5 h, read-out: Percent inhibition of DA uptake, A117S_A428S, Log[compound] M = -6.52288, single replicates): 91.2%
inhibition at 0.1 µM ([10]; 0.5 h, read-out: Percent inhibition of DA uptake, A117S_A428S, Log[compound] M = -7, single replicates): 87.2%
inhibition at 0.03 µM ([10]; 0.5 h, read-out: Percent inhibition of DA uptake, A117S_A428S, Log[compound] M = -7.52288, single replicates): 89.7%
